In patent US5017596A, “Arylpyrazolylcarbinol compounds with analgesic activity” (Laboratorios del Dr. Esteve, S.A., priority 1987, dated 1991):
Read-outs that look alike come from different tables or passages of the source.

Tests used:
Format in all cases: in vivo, Swiss male mice
Details in all cases: Mus musculus, po, read-out: % inhibition of contortions
[1] = tested on: contortions induced by acetylcholine bromide in mice; experiment: Analgesic activity: inhibition of the contortions induced by acetylcholine bromide in mice (Collier's method)
Procedure: (§1) Swiss male mice weighing 17-22 grams are used. Groups containing a minimum of 4 animals are used.
Contortions are induced by the intraperitoneal injection of acetylcholine bromide (7.2 mg/kg, dissolved in physiological serum, a volume of 10 ml/kg of weight being administered) at the start of the experiment and the number of contortions is counted for 5 minutes, this being the reference number for each animal (mice with fewer than 2 contortions are rejected). Immediately afterwards, the test products are administered orally, at a dose of 160 mg/kg, in the form of a suspension or solution in gum arabic at a concentration of 5% (w/v) in distilled water. 40 and 120 minutes after the treatment, acetylcholine bromide is administered again, the contortions are noted and the readings at 40 and 120 minutes are evaluated, taking the contortions of the initial reading as the reference.

[2] = tested on: contortions induced by phenylbenzoquinone in mice; experiment: Analgesic activity: inhibition of the contortions induced by phenylbenzoquinone in mice (Siegmund's method)
Procedure: Analgesic activity: Inhibition of the contortions induced by phenylbenzoquinone in mice--Siegmund's method (E. Siegmund, R. Cadmus and G. Lu, Proc Soc. Exp. Biol. Med., 95, 729 (1957))
as §1
Contortions are induced by the intraperitoneal injection of phenyl-p-benzoquinone (25 ml/kg of a 0.02% solution in a solution of ethanol at a concentration of 5% (v/v) in distilled water, with Evans blue in a proportion of 0.1% (w/v)) and are counted for 15 minutes as from the time of injection. Each product is suspended or dissolved in gum arabic at a concentration of 5% (w/v) in distilled water and is administered orally, at a dose of 160 mg/kg, 60 minutes before the injection of phenylbenzoquinone. The inhibition of contortions due to each product is determined, taking as the reference the contortions in a group of control animals to which only the vehicle is administered orally 60 minutes before the phenylbenzoquinone.

[3] = tested on: contortions induced by acetic acid in mice; experiment: Analgesic activity: inhibition of the contortions induced by acetic acid in mice (Koster's method)
Procedure: Swiss male mice weighing 17-22 grams are used. Groups containing a minimum of 4 animals for each dose are used.
Each product is suspended or dissolved in gum arabic at a concentration of 5% (w/v) in distilled water and is administered orally, at a dose of 160 mg/kg, 60 minutes before the injection of acetic acid.

[4] = 160 mg/kg, administered orally, acetylcholine bromide 7.2 mg/kg i.p., mean of the values at 40 and 120 minutes
[5] = 160 mg/kg, administered orally 60 minutes before phenylbenzoquinone i.p., contortions counted for 15 minutes
[6] = 160 mg/kg, administered orally 60 minutes before acetic acid i.p., contortions counted for 15 minutes

CN(C)CCOC(c1cccc(Cl)c1)c1nccn1C (stereo not drawn) [Example 4]
inhibition in vivo at 160 mg/kg [1, 4]: 95%

CCCCC(O)(c1cccc(C(F)(F)F)c1)c1nccn1C (stereo not drawn) [Example 129]
inhibition in vivo at 160 mg/kg [1, 4]: 55%

CCCCC(OCCCN(C)C)(c1cccc(C(F)(F)F)c1)c1nccn1C (stereo not drawn) [Example 76]
inhibition in vivo at 160 mg/kg [1, 4]: 100%

COc1cc(C(C)(OCCCN(C)C)c2nccn2C)cc(OC)c1OC (stereo not drawn) [Example 68]
inhibition in vivo at 160 mg/kg [1, 4]: 95%

CN(C)CCCOC(C)(c1ccc(Cl)c(Cl)c1)c1nccn1C (stereo not drawn) [Example 86]
inhibition in vivo at 160 mg/kg [2, 5]: 98.8%
inhibition in vivo at 160 mg/kg [3, 6]: 50%

Cn1ccnc1C(O)c1ccc(C(F)(F)F)cc1 (stereo not drawn) [Example 111]
inhibition in vivo at 160 mg/kg [1, 4]: 87.5%

CN(C)CCOC(c1ccc(Cl)c(Cl)c1)c1nccn1C (stereo not drawn) [Example 19]
inhibition in vivo at 160 mg/kg [2, 5]: 87.5%

CCCCn1ccnc1C(O)c1ccc(Cl)cc1Cl (stereo not drawn) [Example 115]
inhibition in vivo at 160 mg/kg [2, 5]: 39.5%
inhibition in vivo at 160 mg/kg [3, 6]: 50%

Cn1ccnc1C(C)(OCCN1CCCC1)c1cccc(Cl)c1 (stereo not drawn) [Example 12]
inhibition in vivo at 160 mg/kg [3, 6]: 82.5%

CN(C)CCOC(C)(c1cccc(Cl)c1)c1nccn1C (stereo not drawn) [Example 8]
inhibition in vivo at 160 mg/kg [1, 4]: 95%

COc1ccc(C(C)(OCCCN(C)C)c2nccn2C)cc1 (stereo not drawn) [Example 69]
inhibition in vivo at 160 mg/kg [1, 4]: 95%

CN(C)CCCOC(C)(c1ccccc1)c1ccnn1C (stereo not drawn) [Example 95]
inhibition in vivo at 160 mg/kg [2, 5]: 45%

Cn1ccnc1C(C)(O)c1cccc(C(F)(F)F)c1 (stereo not drawn) [Example 128]
inhibition in vivo at 160 mg/kg [1, 4]: 82.5%
inhibition in vivo at 160 mg/kg [2, 5]: 67.5%
inhibition in vivo at 160 mg/kg [3, 6]: 52.5%

CCC(OCCCN(C)C)(c1ccc(Cl)cc1)c1nccn1C (stereo not drawn) [Example 61]
inhibition in vivo at 160 mg/kg [1, 4]: 97.5%

CN(C)CCOC(C)(c1ccc(Cl)cc1)c1nccn1CCN1CCCCC1 (stereo not drawn) [Example 20]
inhibition in vivo at 160 mg/kg [2, 5]: 25%

CN(C)CCCOC(c1ccc(Cl)cc1)c1nccn1C (stereo not drawn) [Example 70]
inhibition in vivo at 160 mg/kg [1, 4]: 100%

CN(C)CCCOC(C)(c1ccc(C(F)(F)F)cc1)c1nccn1C (stereo not drawn) [Example 72]
inhibition in vivo at 160 mg/kg [1, 4]: 100%

CCCCn1ccnc1C(O)(CCCC)c1cc(OC)c(OC)c(OC)c1 (stereo not drawn) [Example 141]
inhibition in vivo at 160 mg/kg [1, 4]: 62.5%

Cn1ccnc1C(OCCCN1CCCCC1)c1ccc(Cl)cc1 (stereo not drawn) [Example 82]
inhibition in vivo at 160 mg/kg [1, 4]: 83.8%

CN(C)CCOC(C)(c1ccc(Cl)c(Cl)c1)c1nccn1C (stereo not drawn) [Example 18]
inhibition in vivo at 160 mg/kg [2, 5]: 82.5%

CN(C)CCOC(C)(c1ccccc1Cl)c1nccn1C (stereo not drawn) [Example 5]
inhibition in vivo at 160 mg/kg [1, 4]: 100%

CCCCn1ccnc1C(OCCN(C)C)c1ccc(C(F)(F)F)cc1 (stereo not drawn) [Example 14]
inhibition in vivo at 160 mg/kg [1, 4]: 85%

CCCCn1ccnc1C(O)(CCCC)c1ccccc1Cl (stereo not drawn) [Example 142]
inhibition in vivo at 160 mg/kg [1, 4]: 80%

CCCCn1nccc1C(C)(OCCN(C)C)c1ccc(Cl)cc1 (stereo not drawn) [Example 30]
inhibition in vivo at 160 mg/kg [2, 5]: 27.5%

CN(C)CCCOC(c1ccc(Cl)c(Cl)c1)c1nccn1C (stereo not drawn) [Example 87]
inhibition in vivo at 160 mg/kg [2, 5]: 77.5%

CC(=O)Oc1ccccc1C(=O)O [Acetylsalicylic acid, reference compound]
inhibition in vivo at 160 mg/kg [1]: 92.5%
inhibition in vivo at 160 mg/kg [2]: 75%
inhibition in vivo at 160 mg/kg [3]: 72.5%

COc1cc(C(C)(O)c2nccn2C)cc(OC)c1OC (stereo not drawn) [Example 137]
inhibition in vivo at 160 mg/kg [1, 4]: 85%

COc1ccc(C(OCCCN(C)C)c2nccn2C)cc1 (stereo not drawn) [Example 75]
inhibition in vivo at 160 mg/kg [1, 4]: 100%

Cn1nccc1C(OCCN1CCCC1)c1ccccc1 (stereo not drawn) [Example 34]
inhibition in vivo at 160 mg/kg [2]: 40%

CCCCC(OCCN(C)C)(c1cccc(Cl)c1)c1nccn1C (stereo not drawn) [Example 9]
inhibition in vivo at 160 mg/kg [1, 4]: 97.5%

CN(C)CCCOC(c1ccc(Cl)cc1)(c1nccn1C)C1CCN(C)CC1 (stereo not drawn) [Example 91]
inhibition in vivo at 160 mg/kg [2, 5]: 57.5%

CCCCn1ccnc1C(C)(OCCCN(C)C)c1ccc(Cl)cc1 (stereo not drawn) [Example 77]
inhibition in vivo at 160 mg/kg [1, 4]: 100%

CN(C)CCOC(c1ccccc1)c1ccnn1C (stereo not drawn) [Example 31]
inhibition in vivo at 160 mg/kg [2, 5]: 80%
inhibition in vivo at 160 mg/kg [3, 6]: 80%

CN(C)CCOC(C)(c1ccc(F)cc1)c1nccn1C (stereo not drawn) [Example 6]
inhibition in vivo at 160 mg/kg [1, 4]: 75%
inhibition in vivo at 160 mg/kg [3, 6]: 50%

Cn1ccnc1C(C)(OCCCN1CCCCC1)c1ccc(C(F)(F)F)cc1 (stereo not drawn) [Example 83]
inhibition in vivo at 160 mg/kg [1, 4]: 88.3%

CCCCn1nccc1C(OCCN(C)C)c1ccccc1 (stereo not drawn) [Example 27]
inhibition in vivo at 160 mg/kg [2, 5]: 40%

COc1ccc(C(C)(O)c2nccn2C)cc1 (stereo not drawn) [Example 133]
inhibition in vivo at 160 mg/kg [1, 4]: 52.5%

CN(C)CCOC(C)(c1ccc(Cl)cc1)c1nccn1C (stereo not drawn) [Example 2]
inhibition in vivo at 160 mg/kg [1, 4]: 100%

Cn1ccnc1C(O)c1cccc(C(F)(F)F)c1 (stereo not drawn) [Example 110, 1-methyl-α-(3-trifluoromethylphenyl)-1H-imidazole-2-methanol]
inhibition in vivo at 160 mg/kg [1, 4]: 57.5%

CCCCn1ccnc1C(O)c1cc(OC)c(OC)c(OC)c1 (stereo not drawn) [Example 117]
inhibition in vivo at 160 mg/kg [1, 4]: 60%

CCCCn1ccnc1C(O)(CCCC)c1ccc(Cl)cc1Cl (stereo not drawn) [Example 144]
inhibition in vivo at 160 mg/kg [1, 4]: 88.8%

CN(C)CCCn1ccnc1C(C)(O)c1ccc(Cl)cc1 (stereo not drawn) [Example 146]
inhibition in vivo at 160 mg/kg [2, 5]: 28.5%

Cn1ccnc1C(O)c1ccc(Cl)c(Cl)c1 (stereo not drawn) [Example 113]
inhibition in vivo at 160 mg/kg [2, 5]: 57.5%

Cn1ccnc1C(O)c1ccc(Cl)cc1 (stereo not drawn) [Example 107]
inhibition in vivo at 160 mg/kg [1, 4]: 57.5%

CN(C)CCCOC(c1cccc(Cl)c1)c1nccn1C (stereo not drawn) [Example 60]
inhibition in vivo at 160 mg/kg [1, 4]: 82.5%
inhibition in vivo at 160 mg/kg [3, 6]: 62.5%

CN1CCOC(c2ccccc2)c2ccccc2C1 (stereo not drawn) [Nefopam, reference compound]
inhibition in vivo at 160 mg/kg [1, 4]: 100%
inhibition in vivo at 160 mg/kg [2, 5]: 97.5%
inhibition in vivo at 160 mg/kg [3, 6]: 98%

Cc1cc(C(C)(OCCN(C)C)c2ccccc2)n(C)n1 (stereo not drawn) [Example 38]
inhibition in vivo at 160 mg/kg [2, 5]: 42.5%

Cc1cc(C(OCCN(C)C)c2ccccc2)n(C)n1 (stereo not drawn) [Example 39]
inhibition in vivo at 160 mg/kg [2, 5]: 37.5%

Cn1ccnc1C(C)(O)c1ccccc1Cl (stereo not drawn) [Example 126]
inhibition in vivo at 160 mg/kg [1, 4]: 65%

CN(C)CCCOC(C)(c1ccc(F)cc1)c1nccn1C (stereo not drawn) [Example 64]
inhibition in vivo at 160 mg/kg [1, 4]: 100%
inhibition in vivo at 160 mg/kg [3, 6]: 50%

CN(C)CCCOC(c1ccc(C(F)(F)F)cc1)c1nccn1C (stereo not drawn) [Example 74]
inhibition in vivo at 160 mg/kg [1, 4]: 100%

CN(C)CCOC(C)(c1ccccc1)c1ccnn1C (stereo not drawn) [Example 32]
inhibition in vivo at 160 mg/kg [2, 5]: 37.5%

CN(C)CCOC(c1ccccc1)c1c(Br)cnn1C (stereo not drawn) [Example 37]
inhibition in vivo at 160 mg/kg [2, 5]: 77.5%
inhibition in vivo at 160 mg/kg [3, 6]: 72.5%

CCCCC(O)(c1ccccc1Cl)c1nccn1C (stereo not drawn) [Example 127]
inhibition in vivo at 160 mg/kg [1, 4]: 70%

Cn1ccnc1C(C)(O)c1ccc(Cl)cc1 (stereo not drawn) [Example 121, α-(4-chlorophenyl)-α-methyl-1-methyl-1H-imidazole-2-methanol]
inhibition in vivo at 160 mg/kg [1, 4]: 70%

COc1cc(C(OCCN(C)C)c2ccnn2C)cc(OC)c1OC (stereo not drawn) [Example 33]
inhibition in vivo at 160 mg/kg [2, 5]: 35%

CN(C)CCCOC(c1ccccc1)c1ccnn1C (stereo not drawn) [Example 94]
inhibition in vivo at 160 mg/kg [2, 5]: 40%

CC(=O)Nc1ccc(O)cc1 [Paracetamol, reference compound]
inhibition in vivo at 160 mg/kg [1, 4]: 72.5%
inhibition in vivo at 160 mg/kg [2, 5]: 47.5%
inhibition in vivo at 160 mg/kg [3, 6]: 20%

CN(C)CCOC(C)(c1cccc(C(F)(F)F)c1)c1nccn1C (stereo not drawn) [Example 7]
inhibition in vivo at 160 mg/kg [1, 4]: 95%
inhibition in vivo at 160 mg/kg [3, 6]: 67.5%

CN(C)CCCOC(c1cccc(C(F)(F)F)c1)c1nccn1C (stereo not drawn) [Example 73]
inhibition in vivo at 160 mg/kg [1, 4]: 100%

CCCCn1ccnc1C(O)c1ccc(Cl)cc1 (stereo not drawn) [Example 116]
inhibition in vivo at 160 mg/kg [2, 5]: 27.5%

CCCCC(O)(c1cccc(Cl)c1)c1nccn1C (stereo not drawn) [Example 119]
inhibition in vivo at 160 mg/kg [1, 4]: 90%
inhibition in vivo at 160 mg/kg [3, 6]: 45%

CN(C)CCCOC(C)(c1ccc(Cl)cc1)c1nccn1C (stereo not drawn) [Example 59, α-(4-chlorophenyl)-α-methyl-1-methyl-0-(3-dimethylaminopropyl)-1H-imidazole-2-methanol]
inhibition in vivo at 160 mg/kg [1, 4]: 100%
inhibition in vivo at 160 mg/kg [3, 6]: 87.5%
